Assay results published in patent publication US20260327263A1, “Anti-Bacterial Peptides” (priority 2023, published 2026).
Several values for one entry are separate records, joined by “and”; a condition that tells them apart may be missing. Identical values can stand only once. Where no end group is shown, it is not given here.

Legend:
[1] = test system: Pseudomonas aeruginosa (PA); experiment: Antimicrobial resistance evolution assay, PA; format: cell-based; conditions: for development of antimicrobial resistance, PA: serial passaging, 28 days, resistance = >4-fold MIC change
In short: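 PA and SA serially passaged daily up to 4 weeks at 37° C with agitation, in sub-inhibitory concentrations of peptide or antibiotic, cells diluted to OD600 ~0.2 each 24 h.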

[2] = test system: Staphylococcus aureus (SA); experiment: Time-kill assay, Staphylococcus aureus; format: cell-based; conditions: for time to kill SA (in words): 1X MBC; for Time kill SA, >99% killing: at 1X MBC, * indicates killing within seconds
Method: (§1) The bactericidal abilities of the variant peptides are not only effective, but also fast-acting. […] The killing kinetics are detailed in Table 11 below.
(§2) Pseudomonas aeruginosa (PA) and Staphylococcus aureus (SA) strains were grown as per CLSI guidelines. AMPs were added to the bacterial cultures at their 1X MBC concentrations. Upon treatment, the bacterial cultures were enumerated for viable counts immediately within 1 min, 5 min, 15 min, 30 min and 60 min post-treatments.

[3] = test system: Pseudomonas aeruginosa (PA); experiment: Time-kill assay, Pseudomonas aeruginosa; format: cell-based; conditions: for time to kill PA (in words): 1X MBC; for Time kill PA, >99% killing: at 1X MBC, * indicates killing within seconds
Method: as §1, §2

[4] = test system: human red blood cells (hRBCs); experiment: Hemolysis assay; format: cell-based; conditions: for minimum concentration corresponding to 10% hemolysis (HC) / hemolysis (in words): hRBCs; for minimum concentration corresponding to 10% hemolysis (HC): 37° C.; for hemolysis (in words): FIG. 8 up to 100 μM
Method: The hemolytic score of the peptide variants and pexiganan (SEQ ID NO: 54) are compared to a strong hemolytic peptide, melittin 12 as a control. […] The minimum peptide concentration corresponding to 10% hemolysis (minimal hemolysis concentration, HC) of E1AM2=50 μM, V8LQ19L=12.5 μM, V8LQ19L C-2=3.125 μM, and pexiganan=12.5 μM respectively. Readings of the melittin at 3.125 μM were normalised to 100%.
Examination of hemolytic activity of ultra-short peptides was performed by isolating the red blood cells (RBCs) from human blood samples by centrifugation (1000 g, 4° C., 10 min) and resuspension in 27 mL PBS. This washing step was repeated four times before the RBCs were diluted to a 10% (v/v) suspension. […] Hemolytic properties of E1AM2 and pexiganan were evaluated with melittin used as a positive control, and PBS as a negative control. The plates were incubated at 37° C., for 30 min and then centrifuged (1258 g, 4° C., 6 min). 75 μL of supernatant were transferred into a flat-bottom clear 96-well plate and the OD576 nm was read. Readings of the melittin sample at 3.125 μM were normalized to 100%.

[5] = test system: Pseudomonas aeruginosa (PA); experiment: Live-dead staining of bacteria (membrane damage); format: cell-based, Pseudomonas aeruginosa (ATCC 14213)
Method: FIG. 2 verifies the effects of exemplary variant peptides in disrupting bacterial membranes. To test whether exemplary peptide E1AM2 causes membrane damage in bacteria, live and dead staining of exemplary bacteria strain Pseudomonas aeruginosa (ATCC 14213, PA) are performed in the presence of different concentrations of E1AM2 peptide. […] Scale bar-3 μm. The lesser number of PA cells observed upon E1AM2 treatment at these concentrations is due to leaking of the bacteria caused by membrane disruption. Thus, peptide variants with the cationic arm show bacterial membrane disrupting ability. FIG. 2B provides a quantification of Syto-9 and PI-positive Pseudomonas aeruginosa (PA) cells 24 hours post E1AM2 treatment.
Scale bar=3 μm. […] The percentage of PA cells with (PI-positive, red) and without (Syto-9 stained, green) membrane damage following E1AM2 V8LQ19L peptide treatment are shown.
PA was treated with E1AM2 for 24 hours followed by live-dead saining in accordance to the manufacturers' instruction (LIVE/DEAD™ BacLight™ Bacterial Viability Kit, for microscopy & quantitative assays).

[6] = test system: Staphylococcus aureus (SA); experiment: Broth microdilution anti-bacterial assay (CLSI), Staphylococcus aureus; format: cell-based; conditions: SA; for MIC: overnight, 37° C., ≥99% inhibition; for MBC: ≥99% killing

## E1AM2: untagged (E1AM2), KKLLKKWVKLSKKALKLAQSL
[1]
  development of antimicrobial resistance, PA: prevented resistance acquisition
[2]
  time to kill SA (in words): within minutes
  Time kill SA, >99% killing: 1 min
[3]
  time to kill PA (in words): within minutes
  Time kill PA, >99% killing: 1 min
[4]; at respective MIC/MBC concentrations, melittin 3.125 μM = 100%, 30 min
  hemolysis: ~ 0%
[4]; 30 min
  minimum concentration corresponding to 10% hemolysis (HC): 50 µM
[4]
  hemolysis (in words): do not cause hemolysis
[5]; at 1× MIC (3.125 μM) and 1X MBC (6.25 μM), 24 h
  incorporation of propidium iodide (PI), membrane damage: 100%
[6]
  MIC: 6.25 µM and 6.28 µM
  MBC: 12.5 µM

## KKLLKKWLKLSKKALKLALSL-NH2 [V8LQ19L]
[1]; Table 15: in PA and SA, bacteria not named
  AMR prevention / resistance induction: Prevent AMR
[1]
  development of antimicrobial resistance, PA: effective in preventing the acquisition of AMR
[2]
  time to kill SA (in words): within seconds
  Time kill SA, >99% killing: 1* min
[3]
  time to kill PA (in words): within seconds
  Time kill PA, >99% killing: 1* min
[4]; 30 min
  minimum concentration corresponding to 10% hemolysis (HC): 12.5 µM
[4]
  hemolysis (in words): do not cause hemolysis
[5]; FIG. 12
  mechanism of bacterial killing (live/dead): primarily through membrane damage
[6]
  MIC: 1.56 µM
  MBC: 1.56 µM
[6]; listed as VBLQ19L
  MIC: 1.56 µM
  MBC: 1.56 µM
